The subject of one series is L5178Y. The series can be described thus: Cytotoxicity, 50% inhibition of growth of L5178Y cells in vitro. The series is classed as cell-based. The conditions noted are these: Mus musculus, 96 hrs. incubation at 37° C., read-out: Cytoxicity ID50. How it is done: Concentration required for 50% inhibition of growth of cells in vitro
after 96 hrs. incubation at 37° C.

The test system of another series is uninfected cells. The conditions noted are these: compared with 5-iodo (or 5-bromo)-2'-deoxyuridine; cited from earlier work.
Series [1] deals with herpes simplex virus (HSV). The conditions noted are these: cited from earlier work.
Series [2] concerns cytomegalovirus (CMV strain AD 169). The series can be described thus: Activity against cytomegalovirus (plaque formation on WI-38 cells). The series is classed as cell-based.
For another series, the system named is herpes zoster virus. Kind of series: Anti-viral activity against herpes zoster virus. The series is classed as cell-based.
Series [3] is described as follows: Toxicity to normal human lymphoblastoid cells. The conditions noted are these: read-out: concentration up to which not toxic to normal human lymphoblastoid cells. The series is classed as cell-based. How it is done:
Since 1-(2-deoxy-2-fluoro-β-D-arabinofuranosyl)-5-iodocytosine was not toxic to normal human lymphoblastoid cells at concentrations of up to 10 μM, the compound is believed to affect tumor cells at concentrations 1/100th those needed to suppress normal cell replication.

Series [4] deals with viral versus the cellular enzymes (TK and DNA polymerase). Kind of series: Direct testing of interaction with the viral versus the cellular enzymes. The conditions noted are these: FIAC or its triphosphate. The series is classed as biochemical.
For series [5], the system named is Herpes Simplex Virus type 1. Kind of series: Inhibition of Herpes Simplex Virus type 1 replication. The series is classed as cell-based. How it is done: (§1) Compounds of the invention show anti-viral and anti-tumor activity. 1-(2-Deoxy-2-fluoro-β-D-arabinofuranosyl)-5-iodocytosine inhibits Herpes Simplex Virus type 1 and type 2 replication. HFEM, Patton, 2931, and F-strain HSV-1 and 333 and G-strain HSV-2 are effected at concentrations of 1-(2-deoxy-2-fluoro-β-D-arabinofuranosyl)-5-iodocytosine 0.01μM (approximately 0.004 μg/ml).
(§2) The effective doses for 1-(2-deoxy-2-fluoro-β-D-arabinofuranosyl)-5-iodocytosine are given below. 1-(2-deoxy-2-fluoro-β-D-arabinofuranosyl)-5-iodocytosine is diluted in physiological saline, filter sterilized, and inoculated. This compound is readily soluble at concentrations of 25 mg/ml in saline. In mouse studies, the drug is inoculated by the intraperitoneal route.

For series [6], the system named is herpes simplex virus-type 1 DNA. Kind of series: Inhibition of replication of HSV-1 DNA versus cellular DNA in the same infected cells. The settings on record: viral vs cellular DNA in the same infected cells. The series is classed as cell-based.
For a further series, the system named is HSV-1 strain 2931. Kind of series: In vivo HSV-1 infection of A/J mice. The settings on record: for mice that survived the 21 day experiment: starting 24 hours after inoculation, intraperitoneal. Here is the method: as §2
1-(2-deoxy-2-fluoro-β-D-arabinofuranosyl)-5-iodocytosine was also shown to be active in vivo. A/J mice were inoculated with approximately 50 LD50 of HSV-1 strain 2931 intraperitoneally and then treated with 1-(2-deoxy-2-fluoro-β-D-arabinofuranosyl)-5-iodocytosine starting 24 hours later. 1-(2-deoxy-2-fluoro-β-D-arabinofuranosyl)-5-iodocytosinewas given at 10 and 1 mg/kg/da for 5 days. Untreated mice died 8 days post inoculation. Five of 10 mice treated with 10 mg/kg/day survived the 21 day experiment. Two of 10 treated with 1 mg/kg/da survival the 21 day experiment and the remainder died an average of 10 days after inoculation.

The test system of another series is turkey herpesvirus. Kind of series: In vivo test on avian (turkey) herpesvirus in day-old chicks. The settings on record: 2.5 mg FIAC per 50 g chick at intervals. How it is done: In vivo tests were run to determine the effect of FIAC on avian (turkey) herpesvirus. To this end, day-old chicks were infected with turkey herpesvirus and treated at intervals with 2.5 mg FIAC per 50 g chick.

Series [7] has as its system Herpes Simplex Virus type 2. Kind of series: Inhibition of Herpes Simplex Virus type 2 replication. The series is classed as cell-based. Here is the method:
as §1, §2

The mark [8] stands for this setting: series of herpes simplex virus-types 1 and 2.

In brackets after ≈: the same amount, converted by molar mass.

Consider 14 molecules from US4594339A, “Anti-herpes virus compositions containing 5-substituted 1-2'(deoxy-2-'-substituted-β-d-arabinofuranosyl)pyrimedene nucleosides” (priority 1984, dated 1986).

As to `O=c1[nH]c(=O)n([C@@H]2O[C@H](CO)[C@@H](O)[C@@H]2F)cc1I` [Ve, 1-(2-deoxy-2-fluoro-β-D-arabinofuranosyl)-5-iodouracil], the IC50 in the series with L5178Y turned out to be 0.9 µg/mL (≈ 2.42 µM).

Regarding `Cl.Nc1nc(=O)n([C@@H]2O[C@H](CO)[C@@H](O)[C@@H]2F)cc1I` [IVe, 1-(2-Deoxy-2-fluoro-β-D-arabinofuranosyl)-5-iodocytosine hydrochloride], in the series on L5178Y, the IC50 was found to be 48 µg/mL.

`O=c1ccn([C@@H]2O[C@H](CO)[C@@H](O)[C@@H]2F)c(=O)[nH]1` [Va]: the IC50 with L5178Y is greater than 10 µg/mL.

For the molecule `Nc1nc(=O)n([C@H]2C[C@H](O)[C@@H](CO)O2)cc1I` [5-iodo-2'-deoxycytidine], in the series on uninfected cells, the “toxicity to uninfected cells” value is listed as “less toxic to uninfected cells”. For the same molecule, the “inhibition of HSV replication” value in series [1] is “as effectively as their corresponding deoxyuridine analogs”.

Consider `O=c1[nH]c(=O)n([C@@H]2O[C@H](CO)[C@@H](O)[C@@H]2F)cc1Br` [Vd, 1-(2-deoxy-2-fluoro-β-D-arabinofuranosyl)-5-bromouracil], for which, in the series on L5178Y, the IC50 is 0.9 µg/mL (≈ 2.77 µM).

Consider `Nc1nc(=O)n([C@@H]2O[C@H](CO)[C@@H](O)[C@@H]2F)cc1Cl` [IVc, 1-(2-deoxy-2-fluoro-β-D-arabinofuranosyl)-5-chlorocytosine], for which the IC50 in the series with L5178Y was found to be 1.4 µg/mL (≈ 5.01 µM).

Turning to `Nc1nc(=O)n([C@H]2C[C@H](O)[C@@H](CO)O2)cc1Br` [5-Bromo-2'-deoxycytidine], the “toxicity to uninfected cells” value in the series on uninfected cells is reported as “less toxic to uninfected cells”. Besides, in series [1], the “inhibition of HSV replication” value is “as effectively as their corresponding deoxyuridine analogs”.

Regarding `Cc1cn([C@@H]2O[C@H](CO)[C@@H](O)[C@@H]2F)c(=O)[nH]c1=O` [Vf, 1-(2-deoxy-2-fluoro-β-D-arabinofuranosyl)thymine], the “sensitivity of cytomegalovirus to anti-viral effect” value in series [2] is “sensitive”.

With `Nc1nc(=O)n([C@@H]2O[C@H](CO)[C@@H](O)[C@@H]2F)cc1F` [IVb, 1-(2-deoxy-2-fluoro-β-D-arabinofuranosyl)-5-fluorocytosine], in the series with L5178Y, the IC50 came to 0.5 µg/mL (≈ 1.9 µM).

As to `O=c1[nH]c(=O)n([C@@H]2O[C@H](CO)[C@@H](O)[C@@H]2F)cc1Cl` [Vc, 1-(2-deoxy-2-fluoro-β-D-arabinofuranosyl)-5-chlorouracil], in the series on L5178Y, the IC50 came to 1.4 µg/mL (≈ 4.99 µM).

With `O=c1[nH]c(=O)n([C@@H]2O[C@H](CO)[C@@H](O)[C@@H]2F)cc1F` [Vb, 1-(2-deoxy-2-fluoro-β-D-arabinofuranosyl)-5-fluorouracil], the IC50 with L5178Y came to 1 µg/mL (≈ 3.79 µM).

Regarding `Nc1ccn([C@@H]2O[C@H](CO)[C@@H](O)[C@@H]2F)c(=O)n1` [IVa, 1-(2-deoxy-2-fluoro-β-D-arabinofuranosyl)cytosine, reference compound], the IC50 in the series with L5178Y came out at 0.05 µg/mL (≈ 0.204 µM).

With `Nc1nc(=O)n([C@@H]2O[C@H](CO)[C@@H](O)[C@@H]2F)cc1I` [1-(2-deoxy-2-fluoro-β-D-arabinofuranosyl)-5-iodocytosine], the anti-viral activity result (in the series on herpes zoster virus; in [5] (setting [8]); in series [7] (setting [8])) was “impressive anti-viral activity” throughout. Also, in series [2], the “sensitivity of cytomegalovirus to anti-viral effect” value is “sensitive”. In series [3], the MNTC is greater than 10 µM. For the same molecule, the “selectivity for viral versus cellular enzymes” value in series [4] is on record as “selectivity was demonstrated”. The minimal effective concentration is roughly 0.004 µg/mL in series [5] (Human alphaherpesvirus 1, HFEM, Patton, 2931, and F-strain HSV-1, read-out: concentration at which HSV-1 strains are effected); roughly 0.004 µg/mL in [7] (Human alphaherpesvirus 2, 333 and G-strain HSV-2, read-out: concentration at which HSV-2 strains are effected). The “selective inhibition of replication of viral DNA” value in series [6] is on record as “selectively inhibit the replication of herpes simplex virus-type 1 DNA but not cellular DNA”. In addition, the “mice that survived the 21 day experiment” value in the series on HSV-1 strain 2931 (1 mg/kg/da for 5 days) is on record as “Two of 10”; with HSV-1 strain 2931 (10 mg/kg/day for 5 days), “Five of 10”. Also, in the series on HSV-1 strain 2931 (1 mg/kg/da for 5 days, untreated mice died 8 days post inoculation), the “average time of death after inoculation (remainder)” value was determined as 10 days. Moreover, the “effect on virus induced leukopenia / inhibition of the virus” value with turkey herpesvirus was “brought the virus induced leukopenia back to the levels of the control uninfected chicks and thus inhibited the virus”.

For `Nc1nc(=O)n([C@@H]2O[C@H](CO)[C@@H](O)[C@@H]2F)cc1Br` [IVd, 1-(2-deoxy-2-fluoro-β-D-arabinofuranosyl)-5-bromocytosine], the IC50 in the series on L5178Y is roughly 10 µg/mL (≈ 30.9 µM).
